Data set [1] relates to IRF3 related genes in brain cortical tissue. The experiment in a line: DMXAA-induced IRF-related gene expression in mouse brain cortex. Format: in vivo. The procedure:
FIG. 7A is a bar graph depicting DMXAA-induced induction of IRF-related gene expression in mice. […] RNA was extracted and qtPCR was performed with indicated primers. Data is depicted as mRNA fold-change versus vehicle. Values depicted are group means+/−SEM; n=4 per group.
(§1) Total RNA isolated from brain cortex, or RNA from cell culture, was reverse transcribed using an Omniscript Reverse Transcription kit (Qiagen). Quantitative PCR was performed using the TaqMan Gene Expression Assays (Applied Biosystems) on an ABI-prism 7700. Results were normalized to β-actin expression and analyzed relative to appropriate controls. The relative quantification of the gene of interest was determined using the comparative CT method (2^−ΔΔCt)
Values depicted are group means+/−SEM; n=4 per group.

The test system of data set [2] is Neuro2a cells. Briefly: Gene induction in Neuro2a cells (qtPCR). In kind it is cell-based, mouse. To be noted: 10 ug/ml, 3 hours, compared to 5′pppRNA. The procedure:
(§2) RNA was collected from cell pellets and qtPCR was performed with indicated primers. Data is depicted as mRNA fold-change versus vehicle. Values are normalized to actin and are presented as fold change over vehicle control.
as §1
(§3) Since inflammatory pathways mediated by NF-κB are known to have negative effects on stroke outcome, the induction of key detrimental genes including TNF and IL-6 in response to drug treatment was evaluated. […] RNA was collected from cell pellets and qtPCR was performed with indicated primers. Values are normalized to actin and are presented as fold change over vehicle control.

The subject of data set [3] is ISRE-firefly luciferase reporter in RAW264.7 cells. The experiment in a line: RAW264.7 ISRE-firefly luciferase reporter assay. In kind it is cell-based, mouse. The text has this: Data is depicted as fold increase ISRE activity vs matched vehicle, plotted against log[agonist] (M).
To characterize a small directed subset of molecules known to activate IRF3, mouse macrophage cells (RAW264.7) containing an ISRE-firefly luciferase reporter with a constitutively active renilla luciferase internal control for normalization (Promega) was utilized. IRF3 can activate ISRE through direct binding and via feed-forward mechanisms through potent induction of IFNβ. […] Specifically, RAW264.7 cells containing ISRE firefly luciferase reporter were treated with indicated compounds for 3 hours and luciferase activity was determined.

Data set [4] has as its system BV2 cells. The experiment in a line: Gene induction in BV2 cells (qtPCR). In kind it is cell-based, mouse. The note with it: 10 ug/ml, 3 hours, compared to 5′pppRNA. The procedure: as §2, §1, §3
The test system of data set [5] is cerebral ischemic injury. The experiment in a line: Middle cerebral artery occlusion (MCAO), infarct volume. In kind it is in vivo, mouse. The note with it: 60 minute MCAO, 24 hours. The procedure: Mice were anesthetized and subjected to middle cerebral artery occlusion (MCAO) using the monofilament suture method. Briefly, a silicone-coated 7-0 monofilament nylon surgical suture was threaded through the external carotid artery to the internal carotid artery to block the middle cerebral artery; […] The suture was then removed to restore blood flow. Mice undergoing ischemic preconditioning followed by injurious ischemia were rested in their home cage for 72 h before receiving the second MCAO (45 min). Cerebral blood flow (CBF) was monitored throughout surgery by laser Doppler flowmetry. The mean CBF value between groups was consistent for each experiment. […] Body temperature was monitored and maintained at 37° C. with a thermostat-controlled heating pad.
Mouse brain was sliced into 7×1 mm coronal sections before 2,3,5-triphenyltetrazolium chloride TTC staining, and the volume of infarct was determined by summing of the area of infarct from individual slices. The infarct size for each image was determined using NIH image analyses. […]
IRFs are master regulators of innate immune receptors, constituting a family of DNA-binding proteins expressed in a variety of tissues. […] Infarct volume was measured 24 hours after surgery. […] Specifically, gene transcription was measured in the brain 24 hours post MCAO in LPS preconditioned wildtype, IRF3 deficient, and IRF7 deficient mice using quantitative PCR. […]

The subject of data set [6] is THP1-Dual cells. The experiment in a line: THP1-Dual cytotoxicity (Cell Titer Glo, ATP). To be noted: Human Reporter Cell Line THP1; read-out: Thp1 cytotox CC50. Format: cell-based, human. Put shortly:
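CC50, the concentration killing half the cells, was derived from ATP-dependent CellTiter-Glo luminescence. Cells were THP1-Dual (human) and compound was tested as an 8-point dose-response series, with viability read in the same plate.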
A general note: In ATP-based viability assays light output follows the ATP content of the culture.

[7] abbreviates: 10 mg/kg IP, brain tissue at 3 hours.

One may read the EC50 as the concentration that produces a half-maximal response. What is called CC50 is the concentration that lowers cell viability or growth by half.

As for `Cc1ccc2c(=O)c3cccc(CC(=O)O)c3oc2c1C` [DMXAA, 5,6-dimethylxanthenone-4-acetic acid], in data set [1] (setting [7]), the “IRF3 related gene expression in brain” value is reported as “significant increase” and the “induction of pro-inflammatory genes TNF in brain” value is recorded as “minimal induction”. In addition, in data set [1] (5-fold lower dose (2 mg/kg IP), 3 hours, compared to vehicle), the “IRF-mediated gene induction in the brain” value is “minimal increase”. For the same compound, the “induction of IRF-regulated genes RSAD2 and IFIT1” value in data set [2] is reported as “most robust induction”. Further, the EC50 in data set [3] (Mus musculus, RAW264.7, expanded dose-response study, read-out: EC50 for activating mouse ISRE) was approximately 16 µM. Also, the “ISRE activation” value in data set [3] (RAW264.7, 3 hours post-treatment, 96-well) is on record as “most potent activators”. In addition, the “induction of IRF-regulated genes RSAD2 and IFIT1” value in data set [4] was “most robust induction”. The “protection against ischemic injury in mice lacking IRF3” value in data set [5] (IRF3 KO mice, 250 μg IP) was “not protected”. The “reduction in ischemic injury (infarct volume) compared to controls” value in data set [5] (wild-type mice, 250 μg IP at onset of reperfusion) worked out at 2 fold.
In the case of `COc1ccc(C(=O)Nc2cc(-c3nc4ccccc4s3)ccc2C)cc1[N+](=O)[O-]` [ND-38], the CC50 in data set [6] was 44.9 µM.

These data come from patent publication US20220395500A1, “SMALL MOLECULE ACTIVATORS OF INTERFERON REGULATORY FACTOR 3 AND METHODS OF USE THEREOF” (Neuralexo, Inc., priority 2020, published 2022).
